Results published in patent US10750743B2, “Pyridazinone herbicides” (E.I. DU PONT DE NEMOURS AND COMPANY, priority 2015, dated 2020).

Assays:
Assay type in all cases: in vivo
[1] = tested on: blackgrass (Alopecurus myosuroides); assay: Test A postemergence application, visual injury rating; details: 0 to 100 scale, 0 no effect, 100 complete control
Text: (§1) Seeds of plant species selected from barnyardgrass (Echinochloa crus-galli), kochia (Kochia scoparia), ragweed (common ragweed, Ambrosia elatior), ryegrass, It. (Italian ryegrass, Lolium multiflorum), foxtail, giant (giant foxtail, Setaria faberii), and pigweed (Amaranthus retroflexus), were planted into a blend of loam soil and sand and treated preemergence with a directed soil spray using test chemicals formulated in a non-phytotoxic solvent mixture which included a surfactant.
(§2) At the same time, plants selected from these weed species and also wheat (Triticum aestivum), corn (Zea mays), blackgrass (Alopecurus myosuroides), and galium (catchweed bedstraw, Galium aparine), were planted in pots containing the same blend of loam soil and sand and treated with postemergence applications of test chemicals formulated in the same manner Plants ranged in height from 2 to 10 cm and were in the one- to two-leaf stage for the postemergence treatment. Treated plants and untreated controls were maintained in a greenhouse for approximately 10 d, after which time all treated plants were compared to untreated controls and visually evaluated for injury. Plant response ratings, summarized in Table A, are based on a 0 to 100 scale where 0 is no effect and 100 is complete control. A dash (-) response means no test result.

[2] = tested on: pigweed (Amaranthus retroflexus); assay: as above; details: for Pigweed plant response rating: 0 to 100 scale, 0 no effect, 100 complete control
Text: as §1, §2

corn (Zea mays) = assay: as above; details: for Corn plant response rating: 0 to 100 scale, 0 no effect, 100 complete control
Text: as §1, §2

[3] = tested on: ragweed (common ragweed, Ambrosia elatior); assay: as above; details: for Ragweed plant response rating: 0 to 100 scale, 0 no effect, 100 complete control
Text: as §1, §2

[4] = tested on: ryegrass, It. (Italian ryegrass, Lolium multiflorum); assay: as above; details: for Ryegrass, It. plant response rating: 0 to 100 scale, 0 no effect, 100 complete control
Text: as §1, §2

[5] = tested on: wheat (Triticum aestivum); assay: as above; details: for Wheat plant response rating: 0 to 100 scale, 0 no effect, 100 complete control
Text: as §1, §2

[6] = tested on: galium (catchweed bedstraw, Galium aparine); assay: as above; details: for Galium plant response rating: 0 to 100 scale, 0 no effect, 100 complete control
Text: as §1, §2

[7] = tested on: barnyardgrass (Echinochloa crus-galli); assay: as above; details: 0 to 100 scale, 0 no effect, 100 complete control
Text: as §1, §2

[8] = tested on: foxtail, giant (giant foxtail, Setaria faberii); assay: as above; details: for Foxtail, Giant plant response rating: 0 to 100 scale, 0 no effect, 100 complete control
Text: as §1, §2

kochia (Kochia scoparia) [9] = assay: as above; details: 0 to 100 scale, 0 no effect, 100 complete control
Text: as §1, §2

rice (Oryza sativa) = assay: Test B flooded paddy test, visual rating; details: Flood, 250 g ai/ha, applied to paddy water, rated after 13 to 15 d
Method: (§3) Plant species in the flooded paddy test selected from rice (Oryza sativa), sedge, umbrella (small-flower umbrella sedge, Cyperus difformis), ducksalad (Heteranthera limosa), and barnyardgrass (Echinochloa crus-galli) were grown to the 2-leaf stage for testing. At time of treatment, test pots were flooded to 3 cm above the soil surface, treated by application of test compounds directly to the paddy water, and then maintained at that water depth for the duration of the test. Treated plants and controls were maintained in a greenhouse for 13 to 15 d, after which time all species were compared to controls and visually evaluated. Plant response ratings, summarized in Table B, are based on a scale of 0 to 100 where 0 is no effect and 100 is complete control. A dash (-) response means no test result.

[10] = tested on: ducksalad (Heteranthera limosa); assay: Test B flooded paddy test, visual rating; details: Flood, 250 g ai/ha, applied to paddy water, rated after 13 to 15 d
Method: as §3

[11] = tested on: barnyardgrass (Echinochloa crus-galli); assay: Test B flooded paddy test, visual rating; details: Flood, 250 g ai/ha, applied to paddy water, rated after 13 to 15 d
Method: as §3

[12] = tested on: pigweed (Amaranthus retroflexus); assay: Test A preemergence, directed soil spray, visual injury rating; details: 0 is no effect, 100 is complete control
Text: as §1, §2

[13] = tested on: ragweed (common ragweed, Ambrosia elatior); assay: as above; details: 0 is no effect, 100 is complete control
Text: as §1, §2

[14] = tested on: ryegrass, It. (Italian ryegrass, Lolium multiflorum); assay: as above; details: 0 is no effect, 100 is complete control
Text: as §1, §2

[15] = tested on: barnyardgrass (Echinochloa crus-galli); assay: as above; details: 0 is no effect, 100 is complete control
Text: as §1, §2

[16] = tested on: foxtail, giant (giant foxtail, Setaria faberii); assay: as above; details: 0 is no effect, 100 is complete control
Text: as §1, §2

kochia (Kochia scoparia) [17] = assay: as above; details: 0 is no effect, 100 is complete control
Text: as §1, §2

[18] = tested on: sedge, umbrella (small-flower umbrella sedge, Cyperus difformis); assay: Test B flooded paddy test, visual rating; details: Flood, 250 g ai/ha, applied to paddy water, rated after 13 to 15 d
Method: as §3

[19] = 31 g ai/ha, 0 is no effect, 100 is complete control

SMILES	Blackgrass plant response rating ([1]; 31 g ai/ha)	Blackgrass plant response rating ([1]; 125 g ai/ha)	Pigweed plant response rating ([2]; 125 g ai/ha)	Corn plant response rating (corn (Zea mays); 125 g ai/ha)	Ragweed plant response rating ([3]; 125 g ai/ha)	Ryegrass, It. plant response rating ([4]; 125 g ai/ha)	Wheat plant response rating ([5]; 125 g ai/ha)	Galium plant response rating ([6]; 125 g ai/ha)	Barnyardgrass plant response rating ([7]; 31 g ai/ha)	Barnyardgrass plant response rating ([7]; 125 g ai/ha)	Foxtail, Giant plant response rating ([8]; 125 g ai/ha)	Rice plant response rating (0 to 100 scale, 0 is no effect, 100 is complete control) (rice (Oryza sativa))	Ducksalad plant response rating (0 to 100 scale, 0 is no effect, 100 is complete control) [10]	Barnyardgrass plant response rating (0 to 100 scale, 0 is no effect, 100 is complete control) [11]	Plant response rating (0 to 100 scale), Pigweed ([12]; 31 g ai/ha)	Plant response rating (0 to 100 scale), Pigweed ([12]; 125 g ai/ha)	Plant response rating (0 to 100 scale), Ragweed ([13]; 31 g ai/ha)	Plant response rating (0 to 100 scale), Ragweed ([13]; 125 g ai/ha)	Plant response rating (0 to 100 scale), Ryegrass, It. ([14]; 31 g ai/ha)	Plant response rating (0 to 100 scale), Ryegrass, It. ([14]; 125 g ai/ha)	also measured
CCC(=O)Oc1c(C)nn(C)c(=O)c1-c1ccc(Cl)c2sccc12 [Compound 58]	0	0	20	0	0	10	0	90	0	0	0	0	0	0	20	0	0	80	0	50	Pigweed plant response rating ([2]; 31 g ai/ha): 0; Corn plant response rating (corn (Zea mays); 31 g ai/ha): 0; Ragweed plant response rating ([3]; 31 g ai/ha): 0; Ryegrass, It. plant response rating ([4]; 31 g ai/ha): 0; Wheat plant response rating ([5]; 31 g ai/ha): 0; Galium plant response rating ([6]; 31 g ai/ha): 20; Foxtail, Giant plant response rating ([8]; 31 g ai/ha): 0; Kochia plant response rating (kochia (Kochia scoparia) [9]; 31 g ai/ha): 0; Kochia plant response rating (kochia (Kochia scoparia) [9]; 125 g ai/ha): 60; Plant response rating (0 to 100 scale), Barnyardgrass ([15]; 31 g ai/ha): 0; Plant response rating (0 to 100 scale), Barnyardgrass ([15]; 125 g ai/ha): 0; Plant response rating (0 to 100 scale), Foxtail, Giant ([16]; 31 g ai/ha): 20; Plant response rating (0 to 100 scale), Foxtail, Giant ([16]; 125 g ai/ha): 0; Plant response rating (0 to 100 scale), Kochia (kochia (Kochia scoparia) [17]; 31 g ai/ha): 0; Plant response rating (0 to 100 scale), Kochia (kochia (Kochia scoparia) [17]; 125 g ai/ha): 70
CC(=O)Oc1c(Cl)nn(C)c(=O)c1-c1cccc2cccnc12 [Compound 71]	10	70	50	0	70	90	30	80	10	40	30	0	0	0	0	60	0	10	20	80	Plant response rating (0 to 100 scale), Pigweed [2, 19]: 20; Plant response rating (0 to 100 scale), Corn (corn (Zea mays); [19]): 0; Plant response rating (0 to 100 scale), Ragweed [3, 19]: 30; Plant response rating (0 to 100 scale), Ryegrass, It. [4, 19]: 50; Plant response rating (0 to 100 scale), Wheat [5, 19]: 0; Plant response rating (0 to 100 scale), Galium [6, 19]: 60; Plant response rating (0 to 100 scale), Foxtail, Giant [8, 19]: 10; Sedge, Umbrella plant response rating (0 to 100 scale, 0 is no effect, 100 is complete control) [18]: 0; Plant response rating (0 to 100 scale), Barnyardgrass ([15]; 31 g ai/ha): 0; Plant response rating (0 to 100 scale), Barnyardgrass ([15]; 125 g ai/ha): 20; Plant response rating (0 to 100 scale), Foxtail, Giant ([16]; 31 g ai/ha): 0; Plant response rating (0 to 100 scale), Foxtail, Giant ([16]; 125 g ai/ha): 10; Plant response rating (0 to 100 scale), Kochia (kochia (Kochia scoparia) [17]; 31 g ai/ha): 0; Plant response rating (0 to 100 scale), Kochia (kochia (Kochia scoparia) [17]; 125 g ai/ha): 30
